From patent US8399422B2, “Compositions for transfection of oligonucleotides active for gene silencing and their biological and therapeutical applications” (Polyplus-Transfection, priority 2006, dated 2013)

Tests used:
[1] = tested on: luciferase gene (pGL3) stably expressed by A549-GL3Luc cells; assay: Luciferase gene (pGL3) silencing by GL3Luc siRNA transfection of A549-GL3Luc cells; type: cell-based, human; settings: 48 h
Protocol: A549 (human lung carcinoma, ATCC No CCL-185) cells stably expressing the GL3 luciferase (Photinus pyralis luciferase under the control of SV40 elements) were obtained after stable transfection of pGL3Luc plasmid (Clontech). A549-GL3Luc cells were grown in RPMI-1640 and supplemented with 10% fetal bovine serum, 2 mM glutamax, 100 units/ml penicillin, 100 μg/ml streptomycin and 0.8 μg/ml G418 (Promega). All the cells were maintained at 37° C. in a 5% CO2 humidified atmosphere.
One day before transfection, 2.5×10^4 cells were seeded in 24-well tissue culture plate in 1 ml fresh complete medium containing 10% FBS. Before transfection, complexes of siRNA/transfection reagent were prepared. The desired amount of siRNAs was diluted in 100 μl of serum-free medium. The solution was mixed with a Vortex for 10 seconds. Then, 0.5 μl to 3 μl of amphiphilic molecules-based formulations were added to siRNA solution. The final mixture was mixed with a Vortex for 10 seconds, and left for 10 minutes at room temperature. Then, 100 μl of complexes solution were added per well and the plates were incubated at 37° C. […]
For all transfection protocols, the plates were further incubated at 37° C. for 48 h.
Luciferase gene expression was measured using a commercial kit (Promega, France). After removing the complete medium, three washings with 1 ml of PBS solution were made. Then, 100 μl of 1× lysis buffer were added per well, and the plate was incubated at room temperature for 30 minutes. The lysates were collected and centrifuged at 14,000 g for 5 minutes. The luciferase assay was assessed with 5 μl of lysate after injection of 100 μl of luciferin solution. The luminescence (RLU) was monitored with an integration over 10 seconds with a luminometer (LB960, Berthold, France). Results are expressed as light units integrated over 10 seconds (RLU), per mg of cell protein using the BCA assay (Pierce, France).
As a target model of endogenous reporter gene, A549 cells stably expressing the GL3 luciferase were used (Photinus pyralis luciferase under the control of SV40 elements). A well defined and conventional siRNA, chemically produced, and sequence-specific GL3Luc siRNA of SEQ ID No 1 and 2 composed of a short dsRNA of 19 nucleotides matching the GL3Luc mRNA and comprising 3′-overhangs of 2 deoxyribonucleotides (dT) was used for the transfection experiments. A formulation of cationic amphiphile MONI at 1 mM and combined with neutral phospholipid DOPE at 1 mM in ethanol was prepared. SiRNA diluted in serum-free medium (100 μl) was then complexed with 2 μl of the formulation of MONI/DOPE (1 mM/1 mM in ethanol). The resulting solution of transfection complexes was added on the cells growing in medium containing serum and cells were finally exposed to siRNA concentration range from 100 to 2000 pM (FIG. 1). The silencing efficiency was determined 48 h post-transfection by measuring the luciferase activity with a standard luminescence assay normalized by the protein content of cell lysates. The luciferase activity (expressed as RLU/mg of protein) was inhibited up to 90% when the transfection was performed with 2000 pM of siRNA.
Formulations composed of amphiphilic cationic molecule/DOPE (1 mM/2 mM in 10% ethanol and water) were used to complex siRNA and transfect A549-GL3Luc cells. Luciferase gene expression was measured after 48 h incubation period. Experiments were made in triplicates and the GL3 luciferase silencing efficiency was calculated from the luciferase level of transfected cells with a control GL2-Luc siRNA and normalized by the content of protein in the cell lysates.

[2] = tested on: luciferase gene (pGL3) stably expressed by A549-GL3Luc cells; assay: Reverse transfection in 96-well plate, luciferase silencing in A549-GL3Luc cells; type: cell-based, human; settings: transfected with liposomal MONI/DOPE (½ mM), 48 h
Protocol: GL3Luc siRNA diluted in 50 μl of serum free medium were complexed (in 96-well tissue culture plate format, n=6) for 5 minutes with 1 μl of formulation composed of MONI/DOPE in water (1 mM/2 mM). Then, 10,000 A549-GL3Luc cells, stably expressing the luciferase gene, in 125 μl of medium containing serum were added per well. Luciferase gene expression was measured after 48 h incubation period. As unspecific siRNA control, siRNA matching the GL2 luciferase sequence were transfected in the same conditions. Luciferase gene expression was measured after 48 h incubation period and the luciferase activity was expressed as Relative Light Unit (RLU) normalized by the content of protein in the cell lysates (mg of protein). GL3 luciferase silencing efficiency (FIG. 3B) was calculated from the endogenous luciferase level of untransfected A549-GL3Luc cells normalized by the content of protein in the cell lysates.
Complexes of siRNA/transfection reagent were prepared first. […]
Luciferase gene expression was measured using a commercial kit (Promega, France). […] The luciferase assay was assessed with 5 μl of lysate after injection of 100 μl of luciferin solution. The luminescence (RLU) was monitored with an integration over 10 seconds with a luminometer (LB960, Berthold, France). Results are expressed as light units integrated over 10 seconds (RLU), per mg of cell protein using the BCA assay (Pierce, France). […]

Substance: GL2Luc siRNA: siRNA duplex SEQ ID No 3 and 4 matching the GL2 luciferase sequence, unspecific control (chain 1 CGUACGCGGAAUACUUCGATT; chain 2 TTGCAUGCGCCUUAUGAAGCU; chemistry not fully specified; one strand is listed 3' to 5') [reference compound]
- luciferase level with unrelated GL2Luc siRNA ([1]; transfected with MONBI 1 mM/DOPE 2 mM in ethanol, same conditions): the luciferase level was not affected
- effect of unrelated GL2Luc siRNA on luciferase activity ([1]; transfected with MONI/DOPE 1 mM/1 mM in ethanol, same conditions (100 to 2000 pM)): absence of effect on the luciferase activity
- luciferase inhibition with unrelated GL2Luc siRNA, reverse transfection [2]: absence of luciferase inhibition
